Reference: ChEMBL document CHEMBL1150977, “A quantitative analysis of kinase inhibitor selectivity” (Nat Biotechnol, 2008)

Legend:
LIM domain kinase 2 = LIM domain kinase 2 (Homo sapiens, UniProt P53671)
[1] = molecular target: T1, Tyrosine-protein kinase TXK (Homo sapiens, UniProt P42681)
T1 sequence (P42681 whole entry): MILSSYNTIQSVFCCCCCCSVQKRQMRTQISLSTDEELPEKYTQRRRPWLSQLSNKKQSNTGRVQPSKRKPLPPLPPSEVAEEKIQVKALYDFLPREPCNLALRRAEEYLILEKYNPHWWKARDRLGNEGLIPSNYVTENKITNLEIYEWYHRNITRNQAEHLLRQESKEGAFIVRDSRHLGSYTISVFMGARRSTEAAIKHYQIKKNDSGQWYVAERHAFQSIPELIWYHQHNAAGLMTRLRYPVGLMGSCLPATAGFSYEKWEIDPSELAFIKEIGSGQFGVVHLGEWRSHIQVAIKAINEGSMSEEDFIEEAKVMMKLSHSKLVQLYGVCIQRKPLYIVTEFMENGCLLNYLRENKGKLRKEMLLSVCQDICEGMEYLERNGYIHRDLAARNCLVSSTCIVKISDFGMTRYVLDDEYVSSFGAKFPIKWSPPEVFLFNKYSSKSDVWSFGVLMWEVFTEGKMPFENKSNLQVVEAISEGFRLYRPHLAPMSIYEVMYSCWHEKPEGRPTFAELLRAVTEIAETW

[2] = molecular target: MAP kinase-interacting serine/threonine-protein kinase 2 (Homo sapiens, UniProt Q9HBH9)
[3] = molecular target: Protein-tyrosine kinase 2-beta (Homo sapiens, UniProt Q14289)
[4] = molecular target: T2, Tyrosine-protein kinase ITK/TSK (Homo sapiens, UniProt Q08881)
T2 sequence (Q08881 whole entry): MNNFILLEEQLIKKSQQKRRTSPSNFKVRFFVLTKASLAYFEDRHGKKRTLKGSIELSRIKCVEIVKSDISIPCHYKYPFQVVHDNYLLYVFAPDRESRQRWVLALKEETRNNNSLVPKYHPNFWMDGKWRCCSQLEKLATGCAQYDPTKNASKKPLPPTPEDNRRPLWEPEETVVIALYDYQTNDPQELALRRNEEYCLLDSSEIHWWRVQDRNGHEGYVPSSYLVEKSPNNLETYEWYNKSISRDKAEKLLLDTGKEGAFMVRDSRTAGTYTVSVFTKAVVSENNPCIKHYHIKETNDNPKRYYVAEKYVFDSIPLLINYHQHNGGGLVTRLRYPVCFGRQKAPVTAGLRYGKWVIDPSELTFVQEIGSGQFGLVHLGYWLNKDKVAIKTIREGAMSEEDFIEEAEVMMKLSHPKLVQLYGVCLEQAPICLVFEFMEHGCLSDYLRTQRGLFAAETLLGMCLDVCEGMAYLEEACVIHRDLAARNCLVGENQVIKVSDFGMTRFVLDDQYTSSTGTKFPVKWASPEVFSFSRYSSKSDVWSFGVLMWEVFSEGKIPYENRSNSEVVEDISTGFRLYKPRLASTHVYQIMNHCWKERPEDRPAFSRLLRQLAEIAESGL

[5] = molecular target: T3, Interleukin-1 receptor-associated kinase 3 (Homo sapiens, UniProt Q9Y616)
T3 sequence (Q9Y616 whole entry): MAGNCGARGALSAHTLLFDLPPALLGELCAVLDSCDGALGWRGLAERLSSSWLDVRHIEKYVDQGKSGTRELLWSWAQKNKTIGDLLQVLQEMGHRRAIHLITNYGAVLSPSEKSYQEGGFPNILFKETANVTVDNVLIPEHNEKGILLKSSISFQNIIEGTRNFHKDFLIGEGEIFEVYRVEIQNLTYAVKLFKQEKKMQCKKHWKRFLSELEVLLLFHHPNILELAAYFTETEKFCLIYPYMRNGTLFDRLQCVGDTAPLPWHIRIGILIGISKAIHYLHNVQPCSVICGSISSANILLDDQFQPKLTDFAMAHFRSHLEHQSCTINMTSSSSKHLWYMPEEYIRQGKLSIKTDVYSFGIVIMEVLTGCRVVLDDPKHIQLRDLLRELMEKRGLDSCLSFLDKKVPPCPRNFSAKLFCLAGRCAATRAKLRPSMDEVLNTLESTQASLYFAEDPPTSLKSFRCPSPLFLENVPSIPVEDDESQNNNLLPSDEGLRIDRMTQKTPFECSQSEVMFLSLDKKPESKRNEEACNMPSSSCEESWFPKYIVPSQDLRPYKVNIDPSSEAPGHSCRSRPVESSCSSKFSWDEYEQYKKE

[6] = molecular target: Mitogen-activated protein kinase kinase kinase 20 (Homo sapiens, UniProt Q9NYL2)
[7] = molecular target: Mitogen-activated protein kinase 3 (Homo sapiens, UniProt P27361)
[8] = molecular target: Tyrosine-protein kinase FRK (Homo sapiens, UniProt P42685)
[9] = molecular target: Calcium/calmodulin-dependent protein kinase type II subunit gamma (Homo sapiens, UniProt Q13555)
[10] = molecular target: Ribosomal protein S6 kinase alpha-4 (Homo sapiens, UniProt O75676)
[11] = molecular target: T4, Phosphorylase b kinase gamma catalytic chain, liver/testis isoform (Homo sapiens, UniProt P15735)
T4 sequence (P15735 whole entry): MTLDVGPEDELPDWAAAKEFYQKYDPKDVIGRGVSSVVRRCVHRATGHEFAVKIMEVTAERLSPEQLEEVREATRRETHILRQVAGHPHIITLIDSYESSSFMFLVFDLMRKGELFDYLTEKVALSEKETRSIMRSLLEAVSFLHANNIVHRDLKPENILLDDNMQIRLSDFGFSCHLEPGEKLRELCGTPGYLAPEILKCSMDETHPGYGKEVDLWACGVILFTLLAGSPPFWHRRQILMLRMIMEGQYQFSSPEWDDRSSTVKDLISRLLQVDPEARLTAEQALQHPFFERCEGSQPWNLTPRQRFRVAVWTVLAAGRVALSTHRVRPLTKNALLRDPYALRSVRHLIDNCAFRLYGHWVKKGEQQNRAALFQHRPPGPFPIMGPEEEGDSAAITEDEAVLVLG

Row | SMILES | Kd (LIM domain kinase 2) [µM] | Kd [1] [µM] | Kd [2] [µM] | Kd [3] [µM] | Kd [4] [µM] | Kd [5] [µM] | Kd [6] [µM] | Kd [7] [µM] | Kd [8] [µM] | Kd [9] [µM] | Kd [10] [µM] | Kd [11] [µM]
1 | CCN1CCN(Cc2ccc(NC(=O)Nc3ccc(Oc4cc(NC)ncn4)cc3)cc2C(F)(F)F)CC1 [AST-487] | > 10 | – | – | – | – | – | – | – | – | – | – | –
2 | COCC(=O)NC/C=C/c1ccc2ncnc(Nc3ccc(Oc4ccc(C)nc4)c(C)c3)c2c1 [CP-724714] | > 10 | > 10 | 0.84 | > 10 | > 10 | > 10 | > 10 | > 10 | > 10 | > 10 | > 10 | > 10
3 | Nc1nc(Nc2ccc(S(N)(=O)=O)cc2)nn1C(=O)c1c(F)cccc1F [JNJ-7706621] | – | > 10 | > 10 | > 10 | > 10 | 3.4 | > 10 | – | > 10 | > 10 | > 10 | > 10
4 | CCOc1cc2ncc(C#N)c(Nc3ccc(F)c(Cl)c3)c2cc1NC(=O)/C=C/CN(C)C [PELITINIB] | > 10 | 5.5 | > 10 | > 10 | – | > 10 | 1.2 | > 10 | – | > 10 | > 10 | > 10
5 | Oc1ccc(-c2nc(-c3ccncc3)c(-c3ccc(F)cc3)[nH]2)cc1 [SB-202190] | > 10 | > 10 | > 10 | > 10 | > 10 | > 10 | > 10 | > 10 | 3.1 | > 10 | > 10 | > 10
6 | NC(=O)c1ccc(-c2nc(-c3ccc4c(c3)OCO4)c(-c3ccccn3)[nH]2)cc1 [SB-431542] | > 10 | > 10 | > 10 | > 10 | > 10 | > 10 | > 10 | > 10 | > 10 | > 10 | > 10 | > 10
